This note sets out measurements from ChEMBL document CHEMBL1201862, “PubChem BioAssay data set” (2004).

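Each compound was tested at five concentrations against cells in 96-well plates for 48 hours. GI50 is the concentration that inhibits growth by half.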 Active and inactive are the calls of the source. No stated cut-off is given here; in the data, active = GI50 up to about 1.1 µM and inactive = higher.

Test systems include SNB-78; HOP-18; XF498; DMS-273; LXFL 529; DLD-1; DMS-114; KM-20L2; RXF 631.
Holding throughout (test): NCI tumour cell line growth inhibition, 48 h

`NC12CC3CC(C1)CC(C(=O)O)(C3)C2`: the GI50 in the test on SNB-78, in the test with HOP-18, in the test with XF498, in the test on DMS-273, in the test with LXFL 529 and in the test with DLD-1 was > 100 µM (inactive) in each case. For the same compound, the GI50 in the test on DMS-114 and in the test with KM-20L2 was > 100 µM (inactive) each time.
`O=C(NO)C(=O)Nc1cc(Cl)ccc1Cl`: the GI50 in the test on SNB-78 is > 100 µM (inactive); in the test on HOP-18, > 100 µM (inactive); with DMS-273 it was 42.7 µM (inactive); in the test on LXFL 529, > 100 µM (inactive); in the test with DLD-1 it was > 100 µM (inactive); with DMS-114 it was 69.3 µM (inactive). For the same compound, the GI50 is > 100 µM (inactive) with KM-20L2 and 62.7 µM (inactive) in the test with RXF 631.
Turning to `O=C1CC(c2c[nH]c3ccccc23)C(=O)N1c1ccccc1` (stereo not drawn), the GI50 with SNB-78, in the test on XF498, in the test with DMS-273, with LXFL 529, in the test on DLD-1 and in the test with KM-20L2 was > 100 µM (inactive) in each case.
Regarding `O=C1NC2(O)c3ccccc3C(=O)C2(O)N1c1ccccc1` (stereo not drawn), the GI50 in the test with HOP-18, in the test on XF498, with LXFL 529, in the test with DLD-1, in the test on DMS-114 and with KM-20L2 was > 100 µM (inactive) each time. The GI50 with RXF 631 is > 100 µM (inactive).
As for `Cc1cc(C(C)C)cc(=O)c(O)c1`, the GI50 in the test with SNB-78, in the test with HOP-18, with DMS-273, in the test with LXFL 529, in the test with DLD-1 and in the test on KM-20L2 was > 100 µM (inactive) each time. The GI50 with RXF 631 is > 100 µM (inactive).
With `CCOC(=O)/C([O-])=C(\C(=O)OCC)[n+]1c(C)n(C)c2ccccc21`, the GI50 in the test with SNB-78, in the test on HOP-18, with DMS-273, in the test with LXFL 529, with DLD-1 and in the test on DMS-114 was > 100 µM (inactive) in each case. Moreover, the GI50 in the test on KM-20L2 is > 100 µM (inactive).
Consider `CCN1C(=O)C(N=[N+]=[N-])(c2ccccc2)C(=O)c2ccccc21` (stereo not drawn), for which the GI50 in the test on SNB-78 was 98.2 µM (inactive); in the test with HOP-18 it was > 100 µM (inactive); in the test on XF498, 0.946 µM (active); in the test with DMS-273, > 100 µM (inactive); in the test on LXFL 529, 38.9 µM (inactive); with DLD-1, > 100 µM (inactive). Also, the GI50 is 41.7 µM (inactive) in the test with DMS-114 and > 100 µM (inactive) in the test with KM-20L2.
For `O=c1c(Cl)c(Cl)cnn1CCCl`, the GI50 is 11.8 µM (inactive) in the test with SNB-78; 3 µM (inactive) with XF498; 5.27 µM (inactive) in the test on DMS-273; 1.62 µM (inactive) in the test with LXFL 529; 1.47 µM (inactive) in the test with DLD-1; 4.3 µM (inactive) in the test on DMS-114. In the test on KM-20L2, the GI50 is 13 µM (inactive).
`CC(=O)/C(=N\O)C(=O)NCCc1ccccc1`: the GI50 is > 100 µM (inactive) in the test on SNB-78; > 100 µM (inactive) with HOP-18; 31.6 µM (inactive) in the test on XF498; 55.1 µM (inactive) in the test with DMS-273; > 100 µM (inactive) in the test on LXFL 529; 60.4 µM (inactive) in the test on DLD-1. Further, the GI50 is 43.7 µM (inactive) in the test with DMS-114 and 78.9 µM (inactive) with KM-20L2.
In the case of `Cc1nc(-n2nc(-c3ccccc3)cc2-c2ccccc2)sc1C(=O)/C=C/c1ccc(/C=C/C(=O)c2sc(-n3nc(-c4ccccc4)cc3-c3ccccc3)nc2C)cc1`, the GI50 in the test with SNB-78 is 33.4 µM (inactive); with XF498, 21.8 µM (inactive); with DMS-273, 21.1 µM (inactive); in the test with LXFL 529, 27.7 µM (inactive); in the test on DLD-1, 20.8 µM (inactive); with DMS-114, 36.9 µM (inactive). The GI50 was 19.1 µM (inactive) in the test with KM-20L2 and 28.1 µM (inactive) with RXF 631.
Take `Cc1cc(Br)cc(C)c1NC(=O)C(=O)C(C(=O)c1ccc2ccccc2c1)C1OC(=O)c2ccccc21` (stereo not drawn): the GI50 in the test with SNB-78 was > 10 µM (inactive); with HOP-18, 21.7 µM (inactive); with XF498, 1.14 µM (inactive); with DMS-273, 11 µM (inactive); with LXFL 529, 7.93 µM (inactive); in the test with DLD-1 it was 13 µM (inactive). For the same compound, the GI50 in the test on DMS-114 was 7.78 µM (inactive); in the test with KM-20L2, 19.2 µM (inactive); in the test with RXF 631 it was 16.4 µM (inactive).
On to `O=C(c1nc2ccccc2nc1O)C(O)c1ccco1` (stereo not drawn), for which the GI50 in the test on SNB-78 is > 100 µM (inactive); in the test on XF498, > 100 µM (inactive); with DMS-273 it was > 100 µM (inactive); in the test with LXFL 529, 86.3 µM (inactive); in the test on DMS-114, 52.6 µM (inactive); with KM-20L2 it was 56.5 µM (inactive).
Consider `O=C(Nc1cccc2c1C(=O)c1c(NC(=O)c3ccccc3)ccc(Nc3cccc4c3C(=O)c3ccccc3C4=O)c1C2=O)c1ccccc1`, for which the GI50 in the test on SNB-78, with HOP-18, with DMS-273, in the test with LXFL 529, in the test on DLD-1 and with DMS-114 was > 100 µM (inactive) each time. Further, the GI50 in the test on KM-20L2 and in the test with RXF 631 was > 100 µM (inactive) each time.
Regarding `CCOC(=O)CCCO`, the GI50 with HOP-18, in the test on XF498, in the test on LXFL 529, in the test with DLD-1, in the test on KM-20L2 and in the test on RXF 631 was > 100 µM (inactive) throughout.
Turning to `CCSC(=O)C1(C)OC2CCCCC2C1=O` (stereo not drawn), the GI50 in the test with SNB-78, in the test on HOP-18, with DMS-273, in the test with LXFL 529, in the test with DLD-1 and in the test on DMS-114 was > 100 µM (inactive) each time. In addition, the GI50 in the test with KM-20L2 is > 100 µM (inactive).
Consider `COc1cc([C@@H]2c3cc4c(cc3[C@@H](OC(=O)c3ccc(N)cc3)C3COC(=O)[C@@H]32)OCO4)cc(OC)c1O` (stereo partly drawn), for which the GI50 in the test with SNB-78 is 15.2 µM (inactive); in the test on HOP-18, > 95.1 µM (inactive); with DMS-273 it was 3.43 µM (inactive); in the test with LXFL 529 it was 14.8 µM (inactive); in the test with DLD-1, 5.6 µM (inactive); in the test with KM-20L2, 1.88 µM (inactive). In addition, the GI50 with RXF 631 is 9.1 µM (inactive).
On to `COc1ccc(CN2C(=O)C(Cc3cc(OC)c(OC)c(C)c3OC)N(C(=O)OC(C)C)C(=O)/C2=C/c2cc(OC)c(OC)c(C)c2OC)cc1` (stereo not drawn), for which the GI50 is 16.3 µM (inactive) with HOP-18; 23.6 µM (inactive) with DMS-273; 12.7 µM (inactive) in the test on LXFL 529; > 100 µM (inactive) with DLD-1; 24.9 µM (inactive) in the test with DMS-114; > 100 µM (inactive) with KM-20L2. Further, the GI50 in the test with RXF 631 was > 100 µM (inactive).
Turning to `O=C1CCC2(CCC(=O)NC2=O)C(=O)N1`, the GI50 in the test with XF498, in the test with DMS-273, with LXFL 529, in the test with DMS-114 and in the test on KM-20L2 was > 100 µM (inactive) throughout.
Take `CC(C)(CN1C(=O)C(Cl)=C(Cl)C1=O)CN1C(=O)C(Cl)=C(Cl)C1=O`: the GI50 in the test on SNB-78 is 19 µM (inactive); in the test on HOP-18, 19.4 µM (inactive); in the test on DMS-273, 6.92 µM (inactive); in the test with LXFL 529, 6.5 µM (inactive); with DLD-1, 3.38 µM (inactive); with DMS-114, 9.75 µM (inactive). For the same compound, the GI50 in the test with KM-20L2 was 16.6 µM (inactive).
As to `C=CCN1C2Cc3cc(OC)c(OC)cc3C1Cc1cc(OC)c(OC)cc12`, the GI50 in the test with SNB-78, in the test on XF498, in the test with LXFL 529, with DLD-1 and with KM-20L2 was > 100 µM (inactive) each time.
Consider `C/C(CC(=O)Nc1ccc([N+](=O)[O-])cc1)=N/N=C(N)N`, for which the GI50 in the test on SNB-78 was > 100 µM (inactive); in the test on XF498, > 100 µM (inactive); in the test with DMS-273, > 100 µM (inactive); in the test on LXFL 529 it was 82 µM (inactive); in the test on DLD-1, > 100 µM (inactive); in the test with DMS-114, > 100 µM (inactive). The GI50 in the test on KM-20L2 and with RXF 631 was > 100 µM (inactive) throughout.
Regarding `C[N+](C)(Cc1ccc(NC(=O)CCCC(=O)ON2C(=O)CCC2=O)cc1)c1ccccc1`, the GI50 with HOP-18 is < 0.01 µM (active); with XF498, > 1 µM (active); in the test on DMS-273, < 0.01 µM (active); with LXFL 529, < 0.01 µM (active); in the test with DLD-1, < 0.01 µM (active); with DMS-114, > 1 µM (active). For the same compound, the GI50 with KM-20L2 is < 0.01 µM (active).
As to `CCOP(=O)(C/C(=N/NC(C)(C)C)C(=O)Nc1nc2ccc(C)cc2s1)OCC`, the GI50 with SNB-78, in the test on HOP-18, with XF498, with DMS-273, with LXFL 529 and in the test with DMS-114 was > 100 µM (inactive) each time. Moreover, the GI50 with KM-20L2 and in the test on RXF 631 was > 100 µM (inactive) throughout.
With `Cc1cc(NC(=O)NC(=O)c2ccccc2NC(=O)CN(C)C)ccc1Oc1ncc(Br)cn1`, the GI50 with SNB-78 was 19.2 µM (inactive); in the test with XF498, 19.7 µM (inactive); with DMS-273, 3.74 µM (inactive); with LXFL 529 it was 13.1 µM (inactive); in the test on DLD-1, 8.07 µM (inactive); in the test on DMS-114, 3.07 µM (inactive). Further, the GI50 in the test with KM-20L2 was 4.56 µM (inactive).
With `N#CCCN(c1ccc(-c2nnc(NC(=O)CNNC(=O)CC(=O)Nc3ccccc3)s2)cc1)S(=O)(=O)c1ccccc1`, the GI50 with HOP-18 was > 100 µM (inactive); with XF498, > 100 µM (inactive); in the test with DMS-273 it was > 100 µM (inactive); with LXFL 529, 89.9 µM (inactive); with DLD-1, > 100 µM (inactive); with DMS-114, 55.8 µM (inactive). Further, the GI50 in the test on RXF 631 is > 100 µM (inactive).
